Data published in patent publication US10660877B2 (BRISTOL-MYERS SQUIBB COMPANY, priority 2016, dated 2020).
Like-named read-outs stand apart in the source and are kept apart here.

What was measured:
[1] = target: human TLR8 (Homo sapiens (Human), UniProt Q9NR97); assay: TLR8 inhibition reporter assay (HEK-Blue cells, SEAP reporter, R848 stimulation);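 also: compounds tested from 0.05 nM to 50 µM, 22 h at 37 °C, SEAP measured with HEK-Blue Detection, inhibition relative to agonist plus DMSO versus a known inhibitor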
[2] = target: human TLR7 (Homo sapiens (Human), UniProt Q9NYK1); assay: TLR7 inhibition reporter assay (HEK-Blue cells, SEAP reporter, gardiquimod stimulation); type: cell-based
[3] = target: human TLR9 (Homo sapiens (Human), UniProt Q9NR96); assay: TLR9 inhibition reporter assay (HEK-Blue cells, SEAP reporter, ODN2006 stimulation);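 also: compounds tested over 0.05 nM to 50 µM, 22 h incubation, inhibition taken as SEAP signal drop from agonist plus DMSO wells toward a known inhibitor control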
[4] = read-out: TLR8 IC50, HEK-Blue cells overexpressing human TLR8, R848 15.9 μM
[5] = HEK-Blue cells overexpressing human TLR7, gardiquimod 7.5 μM
[6] = read-out: TLR9 IC50, HEK-Blue cells overexpressing human TLR9, ODN2006 5 nM
[7] = read-out: TLR8 IC50, HEK-Blue cells, R848 15.9 μM
[8] = HEK-Blue cells, gardiquimod 7.5 μM
[9] = read-out: TLR9 IC50, HEK-Blue cells, ODN2006 5 nM

human TLR9, sequence (Q9NR96 26-1032): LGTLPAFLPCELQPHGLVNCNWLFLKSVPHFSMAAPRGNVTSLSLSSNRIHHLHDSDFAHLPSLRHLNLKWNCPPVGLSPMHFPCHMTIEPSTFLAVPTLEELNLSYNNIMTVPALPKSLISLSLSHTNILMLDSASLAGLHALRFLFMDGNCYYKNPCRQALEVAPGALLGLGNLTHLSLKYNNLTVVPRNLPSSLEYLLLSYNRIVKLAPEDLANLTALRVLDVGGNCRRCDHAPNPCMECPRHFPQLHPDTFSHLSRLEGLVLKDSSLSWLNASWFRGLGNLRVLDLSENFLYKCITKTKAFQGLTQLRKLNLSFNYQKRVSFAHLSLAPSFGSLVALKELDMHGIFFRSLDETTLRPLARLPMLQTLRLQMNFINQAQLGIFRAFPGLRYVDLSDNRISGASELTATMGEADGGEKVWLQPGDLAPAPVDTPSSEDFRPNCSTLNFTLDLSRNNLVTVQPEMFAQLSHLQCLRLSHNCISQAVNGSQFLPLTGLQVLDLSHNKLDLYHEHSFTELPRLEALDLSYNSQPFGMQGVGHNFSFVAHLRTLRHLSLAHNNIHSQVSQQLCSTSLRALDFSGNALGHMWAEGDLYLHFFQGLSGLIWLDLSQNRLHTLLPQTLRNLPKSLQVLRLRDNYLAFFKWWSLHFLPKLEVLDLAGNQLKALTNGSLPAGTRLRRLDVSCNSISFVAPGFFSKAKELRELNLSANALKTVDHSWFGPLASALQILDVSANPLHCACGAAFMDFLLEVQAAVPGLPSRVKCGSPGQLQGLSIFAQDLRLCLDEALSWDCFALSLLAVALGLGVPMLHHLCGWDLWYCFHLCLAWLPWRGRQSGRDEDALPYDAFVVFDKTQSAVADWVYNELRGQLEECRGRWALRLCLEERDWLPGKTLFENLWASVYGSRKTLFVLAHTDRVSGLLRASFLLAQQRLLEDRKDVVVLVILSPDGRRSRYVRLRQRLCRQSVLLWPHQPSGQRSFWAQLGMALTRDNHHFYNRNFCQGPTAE
human TLR7, sequence (Q9NYK1 27-1049): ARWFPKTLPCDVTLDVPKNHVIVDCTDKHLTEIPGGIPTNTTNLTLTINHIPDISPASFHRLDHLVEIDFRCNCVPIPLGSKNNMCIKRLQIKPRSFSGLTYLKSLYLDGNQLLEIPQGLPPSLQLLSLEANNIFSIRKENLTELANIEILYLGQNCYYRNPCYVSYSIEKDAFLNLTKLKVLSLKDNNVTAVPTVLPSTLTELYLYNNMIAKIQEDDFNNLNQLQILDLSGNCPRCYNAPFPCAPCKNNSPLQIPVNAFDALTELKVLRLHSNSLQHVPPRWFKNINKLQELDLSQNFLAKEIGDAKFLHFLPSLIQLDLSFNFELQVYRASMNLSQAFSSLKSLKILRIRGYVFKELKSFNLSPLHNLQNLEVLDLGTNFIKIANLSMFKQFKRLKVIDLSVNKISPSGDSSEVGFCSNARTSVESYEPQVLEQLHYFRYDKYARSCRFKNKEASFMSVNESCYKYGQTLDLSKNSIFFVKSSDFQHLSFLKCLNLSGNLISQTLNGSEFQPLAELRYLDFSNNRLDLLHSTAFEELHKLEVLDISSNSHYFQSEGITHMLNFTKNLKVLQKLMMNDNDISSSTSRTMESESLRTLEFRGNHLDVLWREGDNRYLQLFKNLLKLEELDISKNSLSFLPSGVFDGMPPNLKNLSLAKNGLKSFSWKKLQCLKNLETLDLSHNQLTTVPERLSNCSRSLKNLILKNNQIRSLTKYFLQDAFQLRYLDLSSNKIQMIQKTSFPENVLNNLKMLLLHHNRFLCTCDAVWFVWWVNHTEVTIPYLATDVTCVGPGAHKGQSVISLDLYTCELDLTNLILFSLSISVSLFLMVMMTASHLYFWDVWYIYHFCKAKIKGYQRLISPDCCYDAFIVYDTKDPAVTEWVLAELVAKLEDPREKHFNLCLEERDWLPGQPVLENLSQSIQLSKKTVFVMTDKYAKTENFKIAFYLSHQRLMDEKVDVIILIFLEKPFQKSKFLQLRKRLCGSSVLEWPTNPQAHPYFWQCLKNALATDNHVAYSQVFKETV
human TLR8, sequence (Q9NR97 27-1041): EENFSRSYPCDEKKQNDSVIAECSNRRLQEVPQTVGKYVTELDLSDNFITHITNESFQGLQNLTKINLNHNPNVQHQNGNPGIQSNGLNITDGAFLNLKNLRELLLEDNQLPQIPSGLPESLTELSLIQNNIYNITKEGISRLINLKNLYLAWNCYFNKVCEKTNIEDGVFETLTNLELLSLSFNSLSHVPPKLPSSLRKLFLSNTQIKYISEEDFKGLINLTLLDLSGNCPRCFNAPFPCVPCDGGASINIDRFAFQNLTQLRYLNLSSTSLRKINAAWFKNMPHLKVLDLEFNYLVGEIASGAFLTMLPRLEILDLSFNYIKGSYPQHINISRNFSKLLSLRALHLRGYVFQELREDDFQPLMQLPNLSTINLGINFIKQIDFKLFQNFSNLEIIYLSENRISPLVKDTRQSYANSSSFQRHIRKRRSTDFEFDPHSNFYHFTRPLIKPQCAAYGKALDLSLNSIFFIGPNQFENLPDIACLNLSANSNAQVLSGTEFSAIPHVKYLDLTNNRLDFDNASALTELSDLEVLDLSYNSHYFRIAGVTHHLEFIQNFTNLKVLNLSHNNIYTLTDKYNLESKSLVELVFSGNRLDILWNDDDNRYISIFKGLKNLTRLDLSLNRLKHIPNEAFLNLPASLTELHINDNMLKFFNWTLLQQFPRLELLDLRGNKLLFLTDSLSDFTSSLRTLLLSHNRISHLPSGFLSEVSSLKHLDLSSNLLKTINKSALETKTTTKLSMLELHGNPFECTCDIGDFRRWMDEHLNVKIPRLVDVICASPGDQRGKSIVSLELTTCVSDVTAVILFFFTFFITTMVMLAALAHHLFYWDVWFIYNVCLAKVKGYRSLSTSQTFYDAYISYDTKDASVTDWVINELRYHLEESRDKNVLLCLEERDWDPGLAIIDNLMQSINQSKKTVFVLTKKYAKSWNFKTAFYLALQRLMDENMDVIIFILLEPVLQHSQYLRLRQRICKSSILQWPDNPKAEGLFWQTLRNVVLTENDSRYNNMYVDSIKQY

Cc1cc(-c2[nH]c3ccc(C4CCN(C(=O)[C@@H](N)CCCCN)CC4)cc3c2C(C)C)ccn1 [Example 579, (S)-2,6-diamino-1-(4-(3-isopropyl-2-(2-methylpyridin-4-yl)-1H-indol-5-yl)piperidin-1-yl)hexan-1-one]
IC50 [1, 4]: 0.098 µM
IC50 [2, 5]: 0.201 µM
IC50 [3, 6]: 4.36 µM

CC(C)c1c(-c2ccnc(Cl)c2C#N)[nH]c2ccc(C3CCNCC3)cc12 [Example 36, 2-chloro-4-(3-isopropyl-5-(piperidin-4-yl)-1H-indol-2-yl)nicotinonitrile]
IC50 [1, 4]: 0.454 µM
IC50 [2, 5]: 1.27 µM
IC50 [3, 6]: 4.87 µM

Cc1cc(-c2[nH]c3ccc(C4CCNCC4)cc3c2C(C)(C)C)cc(C)n1 [Example 96, 3-(tert-butyl)-2-(2,6-dimethylpyridin-4-yl)-5-(piperidin-4-yl)-1H-indole]
IC50 [1, 4]: 0.0233 µM
IC50 [2, 5]: 0.0091 µM
IC50 [3, 6]: 1.32 µM

Cc1cc(-c2[nH]c3ccc(C4CCN(S(=O)(=O)c5cn(C)c(C)n5)CC4)cc3c2C(C)C)ccn1 [Example 553, 5-(1-((1,2-dimethyl-1H-imidazol-4-yl)sulfonyl)piperidin-4-yl)-3-isopropyl-2-(2-methylpyridin-4-yl)-1H-indole]
IC50 [1, 4]: 0.0843 µM
IC50 [2, 5]: 0.0742 µM
IC50 [3, 6]: 31.6 µM

Cc1cc(-c2[nH]c3ccc(C4CCN(C(=O)CN5CCCC5C)CC4)cc3c2C(C)C)cc(C)n1 (stereo not drawn) [Example 366, 1-(4-(2-(2,6-dimethylpyridin-4-yl)-3-isopropyl-1H-indol-5-yl)piperidin-1-yl)-2-(2-methylpyrrolidin-1-yl)ethan-1-one]
IC50 [1, 4]: 0.0109 µM
IC50 [2, 5]: 0.0032 µM
IC50 [3, 6]: 0.37 µM

Cc1cc(-c2[nH]c3ccc(C4CCN(C(=O)CN(C)C5COC5)CC4)cc3c2C(C)C)cc(C)n1 [Example 416, 1-(4-(2-(2,6-dimethylpyridin-4-yl)-3-isopropyl-1H-indol-5-yl)piperidin-1-yl)-2-(methyl(oxetan-3-yl)amino)ethan-1-one]
IC50 [1, 4]: 0.0497 µM
IC50 [2, 5]: 0.0045 µM
IC50 [3, 6]: 4.76 µM

Cc1cc(-c2[nH]c3ccc(C4CCN(C)CC4)cc3c2C(C)C)c(F)cn1 [Example 635, 2-(5-fluoro-2-methylpyridin-4-yl)-3-isopropyl-5-(1-methylpiperidin-4-yl)-1H-indole]
IC50 [1, 4]: 0.0051 µM
IC50 [2, 5]: 0.0056 µM
IC50 [3, 6]: 3.69 µM

Cc1cc(-c2[nH]c3ccc(C4CCN(C(=O)CN5CCCCC5C)CC4)cc3c2C(C)C)cc(C)n1 (stereo not drawn) [Example 377, 1-(4-(2-(2,6-dimethylpyridin-4-yl)-3-isopropyl-1H-indol-5-yl)piperidin-1-yl)-2-(2-methylpiperidin-1-yl)ethan-1-one]
IC50 [1, 4]: 0.0175 µM
IC50 [2, 5]: 0.0044 µM
IC50 [3, 6]: 0.514 µM

Cc1cc(-c2[nH]c3ccc(C4CCN(Cc5ncon5)CC4)cc3c2C(C)C)c(C)cn1 [Example 734, 3-((4-(2-(2,5-dimethylpyridin-4-yl)-3-isopropyl-1H-indol-5-yl)piperidin-1-yl)methyl)-1,2,4-oxadiazole]
IC50 [1, 4]: 0.0068 µM
IC50 [2, 5]: 0.0138 µM
IC50 [3, 6]: 8.99 µM

Cc1cc(-c2[nH]c3ccc(C4CCN(CC5CC5)CC4)cc3c2C(C)C)ccn1 [Example 866, 5-(1-(cyclopropylmethyl)piperidin-4-yl)-3-isopropyl-2-(2-methylpyridin-4-yl)-1H-indole]
IC50 [1, 7]: 0.0122 µM
IC50 [2, 8]: 0.0381 µM
IC50 [3, 9]: 1.69 µM

CCc1c(-c2ccnc(-n3ccnc3)c2)[nH]c2ccc(C3CCNCC3)cc12 [Example 67, 2-(2-(1H-imidazol-1-yl)pyridin-4-yl)-3-ethyl-5-(piperidin-4-yl)-1H-indole]
IC50 [1, 4]: 0.009 µM
IC50 [2, 5]: 1.01 µM
IC50 [3, 6]: 0.396 µM

Cc1cc(-c2[nH]c3ccc(C4CCN(Cc5cnc(C)[nH]5)CC4)cc3c2C(C)C)ccn1 [Example 821, 3-isopropyl-5-(1-((2-methyl-1H-imidazol-5-yl)methyl)piperidin-4-yl)-2-(2-methylpyridin-4-yl)-1H-indole]
IC50 [1, 7]: 0.0048 µM
IC50 [2, 8]: 0.0363 µM
IC50 [3, 9]: 0.192 µM

Cc1cc(-c2[nH]c3ccc(C4CCN(CC(F)F)CC4)cc3c2C(C)C)ccn1 [Example 660, 5-(1-(2,2-difluoroethyl)piperidin-4-yl)-3-isopropyl-2-(2-methylpyridin-4-yl)-1H-indole]
IC50 [1, 4]: 0.0789 µM
IC50 [2, 5]: 0.104 µM
IC50 [3, 6]: > 50 µM

Cc1cc(-c2[nH]c3ccc(C4CCN(C(=O)C5CCNC5)CC4)cc3c2C(C)C)ccn1 (stereo not drawn) [Example 572, (4-(3-isopropyl-2-(2-methylpyridin-4-yl)-1H-indol-5-yl)piperidin-1-yl)(pyrrolidin-3-yl)methanone]
IC50 [1, 4]: 0.0186 µM
IC50 [2, 5]: 0.0051 µM
IC50 [3, 6]: 0.692 µM

CCc1c(-c2ccnc(OC(C)C)c2)[nH]c2ccc(C3CCN(C4CCN(CC(C)C)CC4)CC3)cc12 [Example 769, 3-ethyl-5-(1′-isobutyl-[1,4′-bipiperidin]-4-yl)-2-(2-isopropoxypyridin-4-yl)-1H-indole]
IC50 [1, 4]: 1.05 µM
IC50 [2, 5]: 5.38 µM
IC50 [3, 6]: 1.5 µM

CC(=O)N1CCC(c2ccc3[nH]c(-c4cc(C)nc(C)c4)c(C(C)C)c3c2)CC1 [Example 174, 1-(4-(2-(2,6-dimethylpyridin-4-yl)-3-isopropyl-1H-indol-5-yl)piperidin-1-yl)ethan-1-one]
IC50 [1, 4]: 0.0811 µM
IC50 [2, 5]: 0.0055 µM
IC50 [3, 6]: 35.1 µM

Cc1cc(-c2[nH]c3ccc(C4CCN(C(=O)C5(C)CCN(C(C)C)CC5)CC4)cc3c2C(C)C)cc(C)n1 [Example 177, (4-(2-(2,6-dimethylpyridin-4-yl)-3-isopropyl-1H-indol-5-yl)piperidin-1-yl)(1-isopropyl-4-methylpiperidin-4-yl)methanone]
IC50 [1, 4]: 0.0672 µM
IC50 [2, 5]: 0.0131 µM
IC50 [3, 6]: 0.937 µM

Cc1cc(-c2[nH]c3ccc(C4CCN(C(=O)c5c(C)n[nH]c5C)CC4)cc3c2C(C)C)cc(C)n1 [Example 121, (3,5-dimethyl-1H-pyrazol-4-yl)(4-(2-(2,6-dimethylpyridin-4-yl)-3-isopropyl-1H-indol-5-yl)piperidin-1-yl)methanone]
IC50 [1, 4]: 0.098 µM
IC50 [2, 5]: 0.03 µM
IC50 [3, 6]: 10.7 µM

CCN(CC)CCCN1CCC(c2ccc3[nH]c(-c4cc(C)nc(C)c4)c(C(C)C)c3c2)CC1 [Example 671, 3-(4-(2-(2,6-dimethylpyridin-4-yl)-3-isopropyl-1H-indol-5-yl)piperidin-1-yl)-N,N-diethylpropan-1-amine]
IC50 [1, 4]: 0.0026 µM
IC50 [2, 5]: 0.0006 µM
IC50 [3, 6]: 0.076 µM

Cc1cc(-c2[nH]c3ccc(C4CCN(CC(=O)N(C)C)CC4)cc3c2C(C)C)c(F)cn1 [Example 643, 2-(4-(2-(5-fluoro-2-methylpyridin-4-yl)-3-isopropyl-1H-indol-5-yl)piperidin-1-yl)-N,N-dimethylacetamide]
IC50 [1, 4]: 0.0047 µM
IC50 [2, 5]: 0.0045 µM
IC50 [3, 6]: 4.4 µM

Cc1cc(-c2[nH]c3ccc(C4CCN(CC(=O)N5C[C@H](C)C[C@@H]5CO)CC4)cc3c2C(C)C)cc(C)n1 [Example 290, 2-(4-(2-(2,6-dimethylpyridin-4-yl)-3-isopropyl-1H-indol-5-yl)piperidin-1-yl)-1-((2R,4R)-2-(hydroxymethyl)-4-methylpyrrolidin-1-yl) ethan-1-one]
IC50 [1, 4]: 0.0668 µM
IC50 [2, 5]: 0.012 µM
IC50 [3, 6]: 0.87 µM

Cc1cc(-c2[nH]c3ccc(C4CCN(C(=O)CNC5CCOC5)CC4)cc3c2C(C)C)cc(C)n1 (stereo not drawn) [Example 387, 1-(4-(2-(2,6-dimethylpyridin-4-yl)-3-isopropyl-1H-indol-5-yl)piperidin-1-yl)-2-((tetrahydrofuran-3-yl)amino)ethan-1-one]
IC50 [1, 4]: 0.0133 µM
IC50 [2, 5]: 0.0006 µM
IC50 [3, 6]: 0.909 µM
